Test: Toxicity in brine shrimp
Format: organism-based
Conditions: artemia, in vivo

SMILES | LC50
CC(=O)O[C@H]1C[C@H](O)[C@@]23C(=O)[C@@H](C)[C@@H]1[C@]2(C)[C@@H](C)CC[C@@H]3O [LEMNAFRICANOL] | 0.32 µM
C[C@@H](C=O)[C@H]1C(=O)CCC2=C[C@@H](O)C[C@H](C)[C@]21C [NARDOSINANOL C] | 4 µM
CC(=O)[C@H]1C[C@H](O)C2=CCC[C@H](C)[C@@]2(C)[C@H]1C(C)=O [NARDOSINANOL G] | 0.35 µM

Source: ChEMBL document CHEMBL1144803, “Nardosinanols A-I and lemnafricanol, sesquiterpenes from several soft corals, Lemnalia sp., Paralemnalia clavata, Lemnalia africana, and Rhytisma fulvum fulvum” (J Nat Prod, 2008)
